Data from US7087595B2, “Antihistaminic spiro compounds” (Janssen Pharmaceutica, N.V., priority 1998, dated 2006).
Structures can show the parent of a compound that is named as a salt.

The compounds below were run on Compound 48/80 induced Lethality (assay: Protection of Rats from Compound 48/80 induced Lethality). Settings: Rattus norvegicus, protection from Compound 48/80 induced lethality, read-out: ED50.
Assay type: in vivo

Point of comparison: `Cl.Cl.NC(=O)c1nc2n(c1C(N)=O)CCc1ccccc1C21CCNCC1.O` [Compound 53, 6,11-dihydrospiro[5H-imidazo[2,1-b][3]benzazepine-11,4′-piperidine]-2,3-dicarboxamide dihydrochloride monohydrate], ED50 0.31 mg/kg. Against it:
- CN1CCC2(CC1)c1ccccc1CCn1c(C(N)=O)cnc12.O [Compound 80, 6,11-dihydro-1′-methylspiro[5H-imidazo[2,1-b][3]benzazepine-11,4′-piperidine]-3-carboxamide monohydrate] — 2-fold higher, 0.63 mg/kg
- Clc1cnc2n1CCc1ccccc1C21CCNCC1.O=C(O)/C=C/C(=O)O [Compound 20, 3-chloro-6,11-dihydrospiro[5H-imidazo[2,1-b][3]benzazepine-11,4′-piperidine] (E)-2-butenedioate (1:1)] — the same, 0.31 mg/kg
- C1=Cn2ccnc2C2(CCNCC2)c2ccsc21 [Compound 56a, spiro[10H-imidazo[1,2-a]thieno[3,2-d]azepine-10,4′-piperidine]] — 8.1-fold higher, 2.5 mg/kg
- Cl.Cl.NC(=O)c1cnc2n1CCc1ccccc1C21CCNCC1 [Compound 17, 5,6-dihydrospiro[11H-imidazo[2,1-b][3]-benzazepine-11,4′-piperidine]-3-carboxamide dihydrochloride] — 7.8-fold lower, 0.04 mg/kg
- CCOC(=O)C(CN1CCC2(CC1)c1ccccc1CCn1c(C(N)=O)cnc12)c1ccccc1 (stereo not drawn) [Compound 64, ethyl 3-(aminocarbonyl)-6,11-dihydro-α-phenylspiro[5H-imidazo-[2,1-b][3]benzazepine-11,4′-piperidine]-1′-propanoate monohydrochloride] — the same, 0.31 mg/kg

Same assay, conditions: protection from Compound 48/80 induced lethality

Point of comparison: `CN1CCC2(CC1)c1ccccc1CCn1ccnc12.O=S(=O)(O)NC1CCCCC1.O=S(=O)(O)NC1CCCCC1` [Compound 1, 6,11-dihydro-1′-methylspiro[5H-imidazo[2,1-b][3]benzazepine-11,4′-piperidine]cyclohexylsulfamate(1:2)], “ED50” value 2.5 mg/kg. Against it:
- 3-(aminocarbonyl)-6,11-dihydrospiro[5H-imidazo[2,1-b][3]-benzazepine-11,4′-piperidine]-1′-carboxylate [Compound 79] — 62-fold lower, 0.04 mg/kg
- 5,6-dihydrospiro[11H-imidazo[2,1-b][3]benzazepine-11,4′-piperidine]-3-methanol (E)-2-butenedioic acid salt (2:1) [Compound 18a] — 31-fold lower, 0.08 mg/kg
- COCc1cnc2n1CCc1ccccc1C21CCNCC1.O=C(O)/C=C/C(=O)O [Compound 58, 6,11-dihydro-3-(methoxymethyl)spiro[5H-imidazo[2,1-b][3]benzazepine-11,4′-piperidine]. (E)-2-butenedioate (1:1)] — the same, 2.5 mg/kg
- NC(=O)c1cnc2n1CCc1ccccc1C21CCN(CCO)CC1 [Compound 62, 6,11-dihydro-1′-(2-hydroxyetehyl)spiro[5H-imidazo[2,1-b][3]-benzazepine-11,4′-piperidine]-3-carboxamide] — 4-fold lower, 0.63 mg/kg
- CCCCN1CCC2(CC1)c1ccccc1CCn1ccnc12.CCCCN1CCC2(CC1)c1ccccc1CCn1ccnc12.Cl.Cl.Cl.Cl.O [Compound 3, 1′-butyl-5,6-dihydrospiro[imidazo[2,1-b][3]-benzazepine-11-[11H],4′-piperidine]dihydrochloride.hemihydrate] — the same, 2.5 mg/kg
